From US10905761B2, “Use of a lipopeptide or lipoprotein as an adjuvant in therapeutic or prophylactic vaccinations” (HELMHOLTZ-ZENTRUM FUER INFEKTIONSFORSCHUNG GMBH, priority 2002, dated 2021)

Assays:
Format in all cases: in vivo
BALB/c (H-2d) mice [1] = test system: BALB/c (H-2d) mice
BALB/c (H-2d) mice [2] = assay: Kinetics of β-gal-specific IgG responses in sera of mice immunized i.n. or i.p. (Example 4); settings: pure β-galactosidase 50 μg/dose i.n.; after a second boost
Protocol: Groups of animals (n=5) were immunized either i.n. (A) or i.p. (B) with 50 μg of β-gal ( ), β-gal plus 10 μg of CTB ( ), β-gal plus 0.5 μg of MALP-2 ( ) or pure buffer solution ( ). The days of the immunizations (day 0, 14 and 21) are marked by arrows. The results are shown as the reciprocal log2 of the geometric endpoint titer, and the SEM […] is indicated by means of vertical lines.
Six- to eight-week old female BALB/c (H-2d) mice were purchased from Harlan Winkelmann GmbH (Borchen, Germany) and treated in accordance with local and EU directives. Groups each of 5 mice were immunized on day 1, 14 and 21 either with 40 μg of pure β-galactosidase (Boehringer, Mannheim, Germany) with admixture of 0.5 μg of synthetic MALP-2 or 10 μg of cholera toxin B subunit (CTB; ICN Biomedicals Inc., Ohio) as standard adjuvant. For intranasal administration (i.n.), 10 μl were administered into each nostril, while for the i.p. injection β-galactosidase was resuspended with or without MALP-2 in 400, 100 or 100 μl of PBS. Serum samples were taken at various times (day 0, 13, 20 and 30) and stored at −20° C. until the β-galactosidase-specific antibodies were determined. Nunc-Immuno MaxiSorp assay plates with 96 wells (Nunc, Roskilde, Denmark) were coated with 100 μl of β-gal (Boehringer, Mannheim, Germany) with 5 μg/ml in 0.05 M […] (pH 8.2) per well. Serial two-fold dilutions of the sera or lavages in PBS with 1% BSA and 0.05% Tween-20 were added (100 μl/well) and the plates were incubated at 37° C. for 24 hours. After rinsing, biotinylated γ chain-specific goat anti-mouse IgG (Sigma Chemie, Deisenhofen, Germany) was added, and the plates were incubated at 37° C. for a further hour. After rinsing four times, 100 μl of peroxidase-conjugated streptavidin (Pharmingen) were added to the […], and the plates were incubated at 37° C. for 30 minutes. After rinsing four times, the reactions were developed by means of ABTS in 0.1 M citrate-phosphate buffer (pH 4.35) which contained 0.01% H2O2.

BALB/c (H-2d) mice [3] = assay: β-Galactosidase-specific IgA in lung and vaginal lavages of mice immunized i.n. (Example 5); settings: i.n. immunization; day 31
Protocol: The results are shown as percentage of β-galactosidase-specific IgA in relation to the total IgA present. The SEM is indicated by vertical lines.
The mice were sacrificed on day 31, and the final samples were taken. Vaginal and lung lavages were obtained by rinsing the organs with 1 ml of PBS supplemented by 50 mM EDTA, 0.1% BSA and 10 mM PMSF. The lavages were then centrifuged in order to remove tissue detritus (10 min at 3000×g) and the remaining liquid was stored at −20° C. In order to determine the total IgA concentration in the rinsings from lung and vagina, serial dilutions of the corresponding samples were incubated in microtiter plates, these plates having previously been coated with goat anti-mouse IgA (Sigma Chemie) as capture antibody (100 μl/well). Serial dilutions of purified mouse IgA (Sigma Chemie) were used to produce a standard plot.

BALB/c (H-2d) mice [4] = assay: β-Galactosidase-specific T-cell proliferation of spleen and regional lymph node cells of immunized mice (Example 7); settings: day 31
Protocol: The cells were restimulated in vitro with various concentrations of soluble β-galactosidase for four days. The results are shown as average cpm subtracted from the background values for unstimulated cells from groups of three. The SEM is depicted by vertical lines.
Lymph nodes located below the lower jaw and the spleens were removed and put together for the analysis of the cellular immune responses. The cells were grown in RPMI 1640 supplemented by 10% fetal calf serum, 10 U/ml penicillin, 50 μg/ml streptomycin, 5×10^−5 M 2-mercaptoethanol and 1 mM L-glutamine (GIBCO BRL, Karlsruhe, Germany) and stored at 37° C. in a moist atmosphere with 5% CO2. The suspensions of lymph node and spleen cells were adjusted to 5×10^6 cells/ml in complete medium and put in a flat-bottomed 96-well microtiter plate (Nunc) with 100 μl/well, and the plates were incubated in the presence of various concentrations of soluble β-galactosidase for 4 days. Each concentration was tested in groups of three. During the last 18 hours of the incubation, 1 ρCi of [^3H]thymidine (Amersham International, Freiburg, Germany) was added to each well. The cells were then harvested on filter paper (Filtermat A; Wallac, Freiburg, Germany) using a cell harvester (Inotech, Wohlen, Switzerland), and the amount of incorporated [^3H]thymidine in the DNA of the proliferated cells was determined with the aid of a […] (Wallac 1450, Micro-Trilux). The results have been shown as the arithmetic mean of the uptake of [^3H]thymidine in cpm.

BALB/c (H-2d) mice [5] = assay: β-Galactosidase-specific IgG isotypes in the serum of immunized mice (ELISA, Example 8); settings: average ± SEM, 5 mice per group
[6] = mice immunized i.p. with pure β-galactosidase

Substance	IL-10 content in supernatants of spleen cells stimulated in vitro (BALB/c (H-2d) mice [1]; mice immunized i.n., β-gal restimulation) [ng/mL]	β-galactosidase-specific antibody endpoint titer in serum (BALB/c (H-2d) mice [2])	β-galactosidase-specific IgA in lung rinsings (BALB/c (H-2d) mice [3])	proliferation of lymph node and spleen cells after in vitro restimulation with β-galactosidase (BALB/c (H-2d) mice [4]; i.n. immunization)	proliferation of spleen cells after in vitro restimulation with β-galactosidase (BALB/c (H-2d) mice [4]; i.p. immunization)	β-Galactosidase-specific IgG1 in serum (BALB/c (H-2d) mice [5]; i.n.) [µg/mL]	β-Galactosidase-specific IgG2a in serum (BALB/c (H-2d) mice [5]; i.n.) [µg/mL]	β-Galactosidase-specific IgG2b in serum (BALB/c (H-2d) mice [5]; i.n.) [µg/mL]	β-Galactosidase-specific IgG3 in serum (BALB/c (H-2d) mice [5]; i.n.) [µg/mL]	β-Galactosidase-specific IgG1 in serum (BALB/c (H-2d) mice [5]; i.p.) [µg/mL]	β-Galactosidase-specific IgG2a in serum (BALB/c (H-2d) mice [5]; i.p.) [µg/mL]	β-Galactosidase-specific IgG2b in serum (BALB/c (H-2d) mice [5]; i.p.) [µg/mL]	β-Galactosidase-specific IgG3 in serum (BALB/c (H-2d) mice [5]; i.p.) [µg/mL]	Th1 cytokines IL-2 and IFN-γ secreted by restimulated cells (BALB/c (H-2d) mice [1]; [6])	secretion of IL-10 and IL-4 by restimulated cells (BALB/c (H-2d) mice [1]; [6])
CTB [reference compound]	0.6														
β-gal: model antigen β-galactosidase administered pure, without adjuvant		about 1000	no production of β-galactosidase-specific IgA in detectable quantity	no detectable cell proliferation	significant proliferation response	22.6 ± 21.3	0.7 ± 0.5	0.3 ± 0.1	0.6 ± 0.0	191.5 ± 132.1	0.1 ± 0.0	0.5 ± 0.1	0.6 ± 0.0	below the limit of detection	stimulated
